From patent US20250296971A1, “GASTRIC INHIBITORY PEPTIDE RECEPTOR LIGANDS” (priority 2021, published 2025)
*1 amine or outer side, *2 acyl side, *3 side chain or, on linkers, in order; H or OH if unused. Where a SMILES comes first, the peptide text is derived from it. Bridges are numbered along the chain shown (N, C = ends). [ ]: non-standard residue; d: D form. The star is where a group is joined. DOTA = O=C(O)CN1CCN(CC(=O)O)CCN(CC(=O)*)CCN(CC(=O)O)CC1; Trp(5-Cl) = N[C@@H](Cc1c[nH]c2ccc(Cl)cc12)C(=O)O; Pyridine(2,6-diCH2) = c1cc(C[*:1])nc(C[*:2])c1; X10 = O=C(CN(CC(=O)NC(CO)CO)CC(=O)*)NC(CO)CO; Pro(4R-NH2) = N[C@H]1CN[C@H](C(=O)O)C1; Hyp = O=C(O)[C@@H]1C[C@@H](O)CN1; X1 = O=C(CN1CCC(N[*:1])CC1)[*:2]; hArg = N=C(N)NCCCC[C@H](N)C(=O)O; hLys = NCCCCC[C@H](N)C(=O)O; NHCH(CH2OH)2 = OCC(CO)N*; dDap = NC[C@@H](N)C(=O)O; Api = NC1(C(=O)O)CCNCC1; Thp = NC1(C(=O)O)CCOCC1

Tests used:
[1] = molecular target: T1, GIPR (CHO-K1-hGIPR cells) (Homo sapiens, UniProt P48546); assay: FACS binding assay; settings: competition with 20 nM GIP-057, 4° C. for 1 hour, read-out: pIC50 Category (converted)
T1 construct: host or cells: CHO-K1
T1 sequence (P48546 22-466): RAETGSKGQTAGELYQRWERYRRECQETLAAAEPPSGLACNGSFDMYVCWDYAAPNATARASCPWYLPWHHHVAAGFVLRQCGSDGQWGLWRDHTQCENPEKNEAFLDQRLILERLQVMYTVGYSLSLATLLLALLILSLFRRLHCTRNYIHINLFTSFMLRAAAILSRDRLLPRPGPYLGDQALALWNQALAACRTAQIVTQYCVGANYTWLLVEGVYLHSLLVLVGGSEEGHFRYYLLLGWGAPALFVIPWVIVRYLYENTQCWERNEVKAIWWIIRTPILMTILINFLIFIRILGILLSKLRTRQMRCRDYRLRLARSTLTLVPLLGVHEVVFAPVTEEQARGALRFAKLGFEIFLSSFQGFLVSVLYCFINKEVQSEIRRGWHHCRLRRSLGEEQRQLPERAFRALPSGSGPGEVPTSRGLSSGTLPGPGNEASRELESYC
Procedure, shortened: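 Read-out: flow cytometric median fluorescence intensity, APC/Cy5 channel, plotted vs peptide conc.; 4PL fit → EC50/pEC50 or IC50/pIC50. Cells: CHO-K1-hGIPR, Accutase-detached, 500.000/mL in PBS + 1% FCS. Detection: APC-streptavidin 1 μg/mL, 30 min, on ice.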

[2] = molecular target: T2, human GIP receptor (bioGIPR) (Homo sapiens, UniProt P48546); assay: Surface plasmon resonance (SPR) based binding assay; settings: Single Cycle Kinetic mode, 25° C.; for t1/2 Category: SPR dissociation half-life; for Kd: SPR, 1:1 Langmuir binding model, read-out: pKD Category (converted)
T2 construct: Biotinylate extracellular of the human GIP receptor (bioGIPR, Proteros biostructures GmbH, lot #02/2b); purchased Proteros biostructures GmbH lot #02/2b
T2 sequence (P48546 22-138 limits assumed): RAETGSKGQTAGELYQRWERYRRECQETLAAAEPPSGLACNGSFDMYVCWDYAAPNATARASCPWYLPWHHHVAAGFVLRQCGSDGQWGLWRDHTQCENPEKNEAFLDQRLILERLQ
Procedure, shortened: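 Binding was measured at 25 °C by single-cycle kinetics against a reference flow cell, with blank-run and drift correction, after capturing biotinylated GIPR extracellular domain to ~3500 RU. Running buffer: HBST, 0.1% DMSO. A 1:1 Langmuir model gave kinetic rates, KD, t1/2 and pKD.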

Row | Structure (SMILES) | IC50 [1] [nM] | t1/2 Category [2] | Kd [2] [nM]
1 | CC[C@H](C)[C@@H]1NC(=O)[C@H](CC(C)C)NC(=O)C2(CCN(C(=O)CN3CCN(CC(=O)O)CCN(CC(=O)O)CCN(CC(=O)O)CC3)CC2)NC(=O)[C@@H](NC(=O)[C@@H](CC(C)C)NC(=O)[C@H](CCC(=O)O)NC(=O)[C@@H]2C[C@@H](N)CN2C(=O)[C@H](Cc2c[nH]c3ccc(Cl)cc23)NC(=O)[C@H](Cc2c[nH]c3ccccc23)NC(=O)[C@H](CC(=O)O)NC(=O)CN(CC(=O)NC(CO)CO)CC(=O)NC(CO)CO)CSCc2cccc(n2)CSC[C@@H](C(=O)NC2CCN(CC(=O)N[C@H](CNC(=O)CN(CC(=O)NC(CO)CO)CC(=O)NC(CO)CO)C(N)=O)CC2)NC1=O [GIP-373, NTASEROL-Asp-Trp-5Clw-Tap-Glu-leu-[Cys(2Lut)-Apc(DOTA)-Leu-Ile-Cys]-APAc-dap(NTASEROL)-NH2] (X10-DW[Trp(5-Cl)][Pro(4R-NH2)]E[dL]C[Api](DOTA)LIC[X1][dDap](X10)-NH2; linker 7-11 via Pyridine(2,6-diCH2)) | < 10 | A (t1/2 values>15 min) | < 1
2 | CC[C@H](C)[C@@H]1NC(=O)[C@H](CC(C)C)NC(=O)C2(CCN(C(=O)CN3CCN(CC(=O)O)CCN(CC(=O)O)CCN(CC(=O)O)CC3)CC2)NC(=O)[C@@H](NC(=O)[C@@H](CC(C)C)NC(=O)[C@H](CCC(=O)O)NC(=O)[C@@H]2C[C@@H](N)CN2C(=O)[C@H](Cc2c[nH]c3ccc(Cl)cc23)NC(=O)[C@H](Cc2c[nH]c3ccccc23)NC(=O)[C@H](CC(=O)O)NC(=O)CN(CC(=O)NC(CO)CO)CC(=O)NC(CO)CO)CSCc2cccc(n2)CSC[C@@H](C(=O)NC2CCN(CC(=O)N[C@H](CCC(=O)NC(CO)CO)C(=O)NC(CO)CO)CC2)NC1=O [GIP-374, NTASEROL-Asp-Trp-5Clw-Tap-Glu-leu-[Cys(2Lut)-Apc(DOTA)-Leu-Ile-Cys]-APAc-GLUSEROL] (X10-DW[Trp(5-Cl)][Pro(4R-NH2)]E[dL]C[Api](DOTA)LIC[X1][dE](NHCH(CH2OH)2)-{NHCH(CH2OH)2}; linker 7-11 via Pyridine(2,6-diCH2)) | < 10 | A (t1/2 values>15 min) | < 1
3 | CC[C@H](C)[C@@H]1NC(=O)[C@H](CC(C)C)NC(=O)C2(CCOCC2)NC(=O)[C@@H](NC(=O)[C@@H](CC(C)C)NC(=O)[C@H](CCCCN)NC(=O)[C@@H]2C[C@@H](O)CN2C(=O)[C@H](Cc2c[nH]c3ccc(Cl)cc23)NC(=O)[C@H](Cc2c[nH]c3ccccc23)NC(=O)[C@H](CC(=O)O)NC(C)=O)CSCc2cccc(n2)CSC[C@@H](C(N)=O)NC1=O [GIP-375, Ac-Asp-Trp-5Clw-Hyp-Lys-leu-[Cys(2Lut)-Thp-Leu-Ile-Cys]-NH2] (Ac-DW[Trp(5-Cl)][Hyp]K[dL]C[Thp]LIC-NH2; linker 7-11 via Pyridine(2,6-diCH2)) | < 10 | A (t1/2 values>15 min) | 1 to 7.94
4 | CC[C@H](C)[C@@H]1NC(=O)[C@H](CC(C)C)NC(=O)C2(CCOCC2)NC(=O)[C@@H](NC(=O)[C@@H](CC(C)C)NC(=O)[C@H](CCCNC(=N)N)NC(=O)[C@@H]2C[C@@H](O)CN2C(=O)[C@H](Cc2c[nH]c3ccc(Cl)cc23)NC(=O)[C@H](Cc2c[nH]c3ccccc23)NC(=O)[C@H](CC(=O)O)NC(C)=O)CSCc2cccc(n2)CSC[C@@H](C(N)=O)NC1=O [GIP-376, Ac-Asp-Trp-5Clw-Hyp-Arg-leu-[Cys(2Lut)-Thp-Leu-Ile-Cys]-NH2] (Ac-DW[Trp(5-Cl)][Hyp]R[dL]C[Thp]LIC-NH2; linker 7-11 via Pyridine(2,6-diCH2)) | < 10 | A (t1/2 values>15 min) | 1 to 7.94
5 | CC[C@H](C)[C@@H]1NC(=O)[C@H](CC(C)C)NC(=O)C2(CCOCC2)NC(=O)[C@@H](NC(=O)[C@@H](CC(C)C)NC(=O)[C@H](Cc2c[nH]cn2)NC(=O)[C@@H]2C[C@@H](O)CN2C(=O)[C@H](Cc2c[nH]c3ccc(Cl)cc23)NC(=O)[C@H](Cc2c[nH]c3ccccc23)NC(=O)[C@H](CC(=O)O)NC(C)=O)CSCc2cccc(n2)CSC[C@@H](C(N)=O)NC1=O [GIP-377, Ac-Asp-Trp-5Clw-Hyp-His-leu-[Cys(2Lut)-Thp-Leu-Ile-Cys]-NH2] (Ac-DW[Trp(5-Cl)][Hyp]H[dL]C[Thp]LIC-NH2; linker 7-11 via Pyridine(2,6-diCH2)) | < 10 | A (t1/2 values>15 min) | 1 to 7.94

Results, then the compound that gave them:

Row | IC50 [1] [nM] | t1/2 Category [2] | Kd [2] [nM] | Structure (SMILES)
6 | < 10 | A (t1/2 values>15 min) | 1 to 7.94 | CC[C@H](C)[C@@H]1NC(=O)[C@H](CC(C)C)NC(=O)C2(CCOCC2)NC(=O)[C@@H](NC(=O)[C@@H](CC(C)C)NC(=O)[C@H](CCCCCN)NC(=O)[C@@H]2C[C@@H](O)CN2C(=O)[C@H](Cc2c[nH]c3ccc(Cl)cc23)NC(=O)[C@H](Cc2c[nH]c3ccccc23)NC(=O)[C@H](CC(=O)O)NC(C)=O)CSCc2cccc(n2)CSC[C@@H](C(N)=O)NC1=O [GIP-378, Ac-Asp-Trp-5Clw-Hyp-Hly-leu-[Cys(2Lut)-Thp-Leu-Ile-Cys]-NH2] (Ac-DW[Trp(5-Cl)][Hyp][hLys][dL]C[Thp]LIC-NH2; linker 7-11 via Pyridine(2,6-diCH2))
7 | 10 to 79.4 | A (t1/2 values>15 min) | 1 to 7.94 | CC[C@H](C)[C@@H]1NC(=O)[C@H](CC(C)C)NC(=O)C2(CCOCC2)NC(=O)[C@@H](NC(=O)[C@@H](CC(C)C)NC(=O)[C@H](CCCCNC(=N)N)NC(=O)[C@@H]2C[C@@H](O)CN2C(=O)[C@H](Cc2c[nH]c3ccc(Cl)cc23)NC(=O)[C@H](Cc2c[nH]c3ccccc23)NC(=O)[C@H](CC(=O)O)NC(C)=O)CSCc2cccc(n2)CSC[C@@H](C(N)=O)NC1=O [GIP-395, Ac-Asp-Trp-5Clw-Hyp-Har-leu-[Cys(2Lut)-Thp-Leu-Ile-Cys]-NH2] (Ac-DW[Trp(5-Cl)][Hyp][hArg][dL]C[Thp]LIC-NH2; linker 7-11 via Pyridine(2,6-diCH2))
